Each molecule was assayed against T1, CCR1 (Homo sapiens, UniProt P32246) (assay: CCR1 inhibition (THP-1 FLIPR assay / THP-1 whole cell radioligand binding assay; the patent does not say which gave the values)). Conditions: threshold list, less than 100 nm; compounds of Table 1; read-out: inhibitory activity.
T1 construct: a monocytic derived cell line that endogenously expresses CCR1; host or cells: THP-1 cells
T1 sequence (P32246 1-355): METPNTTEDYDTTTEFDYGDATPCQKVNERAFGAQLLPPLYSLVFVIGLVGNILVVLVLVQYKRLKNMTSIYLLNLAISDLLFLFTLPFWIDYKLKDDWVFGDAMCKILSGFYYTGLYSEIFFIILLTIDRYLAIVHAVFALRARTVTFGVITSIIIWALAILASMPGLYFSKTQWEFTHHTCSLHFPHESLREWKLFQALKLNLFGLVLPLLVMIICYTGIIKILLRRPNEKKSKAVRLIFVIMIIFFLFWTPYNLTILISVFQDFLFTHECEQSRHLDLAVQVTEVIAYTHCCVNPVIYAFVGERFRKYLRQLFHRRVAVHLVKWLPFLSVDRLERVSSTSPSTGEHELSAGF
Type: cell-based
Experimental: The primary screening assay is a FLIPR® (Fluorometric Imaging Plate Reader, available from Molecular Devices Corporation, Sunnyvale, Calif.) assay using THP-1 cells (ATCC, Catalog No. TIB 202), a monocytic derived cell line that endogenously expresses CCR1.
The cells were resuspended at 1×10^6 cells/ml in dye loading media (growth media (RPMI+10% FBS (Fetal Bovine serum)+5.5×10^−5M 2-mercaptoethanol)+10 mM HEPES (N-2-hydroxyethylpiperazine-N′-2-ethane-sulfonic acid)+2.5 mM probenecid+fluo-3 (1:250)). The cells were incubated for 1 hour at 37° C. and then washed in FLIPR wash buffer (100 mL 10× HBSS (Hanks Buffered Saline Solution) (w/Ca++/Mg++)+20 mL 1M HEPES+1 g BSA+10 mL 250 mM probenecid+water (to make 1 L)) and plated at 50,000 cells/well in black/clear 384 well plates. The plates were transferred to FLIPR where the ability of different concentrations of compounds to inhibit RANTES induced calcium flux was assessed. Inhibition of the CCR1 response was reflected by a decrease of the fluorescence signal relative to the positive controls (RANTES alone).
THP-1 Whole Cell Radioligand Binding Assay
The cells were washed with PBS (phosphate buffered saline) and resuspended in binding buffer (10 mM HEPES pH 7.2, 1× HBSS (w/Ca^2+, Mg^2+) 0.5% BSA, 0.02% Na-azide) at 4×10^6 cells/ml (for 200, 000 cells/well). Cells were incubated with 0.1 to 0.2 nM [^125I]-labeled MIP-1α with or without unlabeled competitor (MIP-1α) or various concentrations of compounds for 60 minutes at room temperature. The assay was terminated by vacuum filtration through glass fiber filters (GF/B, Packard) which were presoaked in 0.3% polyethyleneimine. The filters were washed with wash buffer (10 mM HEPES, pH 7.2, 1 mM CaCl2, 5 mM MgCl2 0.5M NaCl), dried and the amount of bound radioactivity was determined by scintillation counting.

IC50, < 0.1 µM:
O=C(c1ccc(Cl)cc1)N1CCN([C@@H]2CN(c3ncnc4cc(F)c(F)cc34)C[C@H]2O)CC1 (stereo in doubt) [Example 102, 4-[4-(4-chlorobenzoyl)piperazin-1-yl]-1-(6,7-difluoroquinazolin-4-yl)pyrrolidin-3-ol]
O=C(c1ccc(Cl)cc1)N1CCN([C@H]2CN(c3nc(C(F)(F)F)nc4ccc(Cl)cc34)C[C@@H]2O)CC1 (stereo in doubt) [Example 173, 4-[4-(4-chlorobenzoyl)piperazin-1-yl]-1-[6-chloro-2-(trifluoromethyl)quinazolin-4-yl]pyrrolidin-3-ol]
O=C(c1ccc(Cl)cc1)N1CCN([C@@H]2CN(c3nccc(C(F)(F)F)n3)C[C@H]2O)CC1 (stereo in doubt) [Example 3, 4-[4-(4-chlorobenzoyl)piperazin-1-yl]-1-[4-(trifluoromethyl)pyrimidin-2-yl]pyrrolidin-3-ol]
COc1ccc2nc(C(F)(F)F)nc(N3C[C@@H](O)[C@H](N4CCN(C(=O)c5ccc(Cl)cc5)CC4)C3)c2n1 (racemic) [Example 200, 4-[4-(4-chlorobenzoyl)piperazin-1-yl]-1-[6-methoxy-2-(trifluoromethyl)pyrido[3,2-d]pyrimidin-4-yl]pyrrolidin-3-ol]
O=C(c1ccc(Cl)cc1)N1CCN([C@H]2CN(c3cccc(C(F)(F)F)n3)C[C@@H]2O)CC1 [Example 79]
O[C@@H]1CN(c2ccnc3cc(Cl)ccc23)C[C@H]1N1CCN(Cc2ccc(Cl)cc2)CC1 [Example 61, (3R,4R)-4-[4-(4-chlorobenzyl)piperazin-1-yl]-1-(7-chloroquinolin-4-yl)pyrrolidin-3-ol]
O[C@H]1CN(c2ncnc3cc(Cl)ccc23)C[C@@H]1N1CCN(Cc2ccc(Cl)cc2)CC1 (stereo in doubt) [Example 87, 4-[4-(4-chlorobenzyl)piperazin-1-yl]-1-(7-chloroquinazolin-4-yl)pyrrolidin-3-ol]
Cc1cc(C(F)(F)F)nc(N2C[C@@H](O)[C@H](N3CCN(Cc4ccc(Cl)cc4)CC3)C2)n1 (stereo in doubt) [Example 108, 4-[4-(4-chlorobenzyl)piperazin-1-yl]-1-[4-methyl-6-(trifluoromethyl)pyrimidin-2-yl]pyrrolidin-3-ol]
CCOc1ccc2nc(C(F)(F)F)nc(N3C[C@H](O)[C@@H](N4CCN(C(=O)c5ccc(Cl)cc5)CC4)C3)c2c1 (stereo in doubt) [Example 184, 4-[4-(4-chlorobenzoyl)piperazin-1-yl]-1-[6-ethoxy-2-(trifluoromethyl)quinazolin-4-yl]pyrrolidin-3-ol]
O[C@H]1CN(c2ncnc3cc(C(F)(F)F)ccc23)C[C@@H]1N1CCN(Cc2ccc(Cl)cc2)CC1 (stereo in doubt) [Example 97, 4-[4-(4-chlorobenzyl)piperazin-1-yl]-1-[7-(trifluoromethyl)quinazolin-4-yl]pyrrolidin-3-ol]
O[C@@H]1CN(c2nc(C(F)(F)F)cc(C(F)(F)F)n2)C[C@H]1N1CCN(Cc2ccc(Cl)cc2)CC1 [Example 110, 1-[4,6-bis(trifluoromethyl)pyrimidin-2-yl]-4-[4-(4-chlorobenzyl)piperazin-1-yl]pyrrolidin3-ol]
O=C(c1ccc(Cl)cc1)N1CCN([C@@H]2CN(c3cc(C(F)(F)F)cc(C(F)(F)F)c3)C[C@H]2O)CC1 (stereo in doubt) [Example 113, 1-[3,5-bis(trifluoromethyl)phenyl]-4-[4-(4-chlorobenzoyl)piperazin-1-yl]pyrrolidin-3-ol]
NC(=O)Nc1ccc2nc(C(F)(F)F)nc(N3C[C@H](O)[C@@H](N4CCN(C(=O)c5ccc(Cl)cc5)CC4)C3)c2c1 (stereo in doubt) [Example 194, N-[4-{3-[4-(4-chlorobenzoyl)piperazin-1-yl]-4-hydroxypyrrolidin-1-yl}-2-(trifluoromethyl)quinazolin-6-yl]urea]
O=C(c1ccc(Cl)cc1)N1CCN([C@@H]2CN(c3ncnc4cc(Cl)cnc34)C[C@H]2O)CC1 (racemic) [Example 162, 4-[4-(4-chlorobenzoyl)piperazin-1-yl]-1-(7-chloropyrido[3,2-d]pyrimidin-4-yl)pyrrolidin-3-ol]
Cc1cc(C(F)(F)F)nc(N2C[C@@H](O)[C@H](N3CCN(C(=O)c4ccc(Cl)cc4)CC3)C2)n1 (stereo in doubt) [Example 107, 4-[4-(4-chlorobenzoyl)piperazin-1-yl]-1-[4-methyl-6-(trifluoromethyl)pyrimidin-2-yl]pyrrolidin-3-ol]
O=C(c1ccc(Cl)cc1)N1CCN([C@H]2CN(c3cc(C(F)(F)F)c4ccccc4n3)C[C@@H]2O)CC1 (stereo in doubt) [Example 127, 4-[4-(4-chlorobenzoyl)piperazin-1-yl]-1-[4-(trifluoromethyl)quinolin-2-yl]pyrrolidin-3-ol]
O=C(c1ccc(Cl)cc1)N1CCN([C@H]2CN(c3nccc(C(F)(F)F)n3)C[C@@H]2O)CC1 [Example 68, (3S,4S)-4-[4-(4-chlorobenzoyl)piperazin-1-yl]-1-[4-(trifluoromethyl)pyrimidin-2-yl]pyrrolidin-3-ol]
O=C(c1ccc(Cl)cc1)N1CCN([C@@H]2CN(c3nc(C(F)(F)F)nc4cc(C(F)(F)F)ccc34)C[C@H]2O)CC1 (stereo in doubt) [Example 111, 1-[2,7-bis(trifluoromethyl)quinazolin-4-yl]-4-[4-(4-chlorobenzoyl)piperazin-1-yl]pyrrolidin-3-ol]
O=C(c1ccc(Cl)cc1)N1CCN([C@@H]2CN(c3ncnc4cc(Cl)ccc34)C[C@H]2O)CC1 (stereo in doubt) [Example 23, 4-[4-(4-chlorobenzoyl)piperazin-1-yl]-1-(7-chloroquinazolin-4-yl)pyrrolidin-3-ol]
Cc1ccc2nc(C(F)(F)F)nc(N3C[C@H](O)[C@@H](N4CCN(C(=O)c5ccc(Cl)cc5)CC4)C3)c2c1 (stereo in doubt) [Example 174, 4-[4-(4-chlorobenzoyl)piperazin-1-yl]-1-[6-methyl-2-(trifluoromethyl)quinazolin-4-yl]pyrrolidin-3-ol]
CC(C)(O)c1ccc2nc(C(F)(F)F)nc(N3C[C@@H](O)[C@H](N4CCN(C(=O)c5ccc(Cl)cc5)CC4)C3)c2c1 (stereo in doubt) [Example 199, 4-[4-(4-chlorobenzoyl)piperazin-1-yl]-1-[6-(1-hydroxy-1-methylethyl)-2-(trifluoromethyl)quinazolin-4-yl]pyrrolidin-3-ol]
O=C(c1ccc(Cl)cc1)N1CCN([C@@H]2CN(c3nc(C(F)(F)F)nc4cnccc34)C[C@H]2O)CC1 (racemic) [Example 137, 4-[4-(4-chlorobenzoyl)piperazin-1-yl]-1-[2-(trifluoromethyl)pyrido[3,4-d]pyrimidin-4-yl]pyrrolidin-3-ol]
O=C(c1ccc(Cl)cc1)N1CCN([C@@H]2CN(c3ncnc4cc(Cl)c(F)cc34)C[C@H]2O)CC1 (stereo in doubt) [Example 161, 4-[4-(4-chlorobenzoyl)piperazin-1-yl]-1-(7-chloro-6-fluoroquinazolin-4-yl)pyrrolidin-3-ol]
O=C(c1ccc(Cl)cc1)N1CCN([C@@H]2CN(c3ccnc4cc(Cl)ccc34)C[C@H]2O)CC1 (stereo in doubt) [Example 1, 4-[4-(4-chlorobenzoyl)piperazin-1-yl]-1-(7-chloroquinolin-4-yl)pyrrolidin-3-ol]
CCc1cc(C(F)(F)F)nc(N2C[C@@H](O)[C@H](N3CCN(C(=O)c4ccc(Cl)cc4)CC3)C2)n1 (stereo in doubt) [Example 121, 4-[4-(4-chlorobenzoyl)piperazin-1-yl]-1-[4-ethyl-6-(trifluoromethyl)pyrimidin-2-yl]pyrrolidin-3-ol]
